# Results as given in US4652547A (Eli Lilly and Company, priority 1984, dated 1987).
# Like-named read-outs stand apart in the source and are kept apart here.
# Tests used:
# [1] = Method: (§1) J. Physiol. 237:E214-E223 (1979). With this technique, an antecubital vein is cannulated in an antegrade manner to administer the infusates. A dorsal hand vein is cannulated in a retrograde fashion and kept in a warming device (70° C.) to facilitate venous sampling and provide arterialized venous blood. After insertion of the catheters, [3--3H]-glucose is infused for at least 30 minutes before initiating the hormone infusion. At the onset of hormone infusion, a priming dose of either insulin or proinsulin is administered during the initial 10 minutes in a logarithmically decreasing manner to acutely raise the serum hormone level. The amount of insulin or proinsulin given during this initial 10 minute period is roughly twice that given during each subsequent 10 minute interval by a continuous hormone infusion. The serum glucose is maintained between 80 and 90 mg/dl throughout the study period with a coefficient of variation of less than 5% by means of a variable rate of infusion of 20% dextrose. The overall glucose disposal rate is assessed isotopically for each 20 minute interval of the study.
# Each subject underwent a total of 8 euglycemic glucose clamp studies, each performed on a separate day. Insulin infusion rates of 15, 40, 120, and 240 mU/M2/min were utilized to construct a dose response curve for insulin action. With this approach an attempt was made to achieve steady state insulin concentrations of 40 to 800 μU/ml (Table 1). Each subject was also studied with four different proinsulin infusions. […] Hepatic glucose output was quantitated in the basal state and during each clamp study using a primed continuous infusion of [3--3H]glucose. […] The dose response relationship for insulin and proinsulinmediated suppression of hepatic glucose output was determined by calculating the percent suppression of basal hepatic glucose output at each steady state hormone concentration obtained during the euglycemic clamp studies.
# hepatic glucose output = assay: Euglycemic glucose-clamp studies: suppression of hepatic glucose output; format: in vivo, human
# Method: as §1, with “The amount of insulin or proinsulin given during this initial 10 minute period is roughly twice that given during each subsequent 10 minute interval by a continuous hormone infusion. The serum glucose is maintained between 80 and 90 mg/dl throughout the study period with a coefficient of variation of less than 5% by means of a variable rate of infusion of 20% dextrose.” left out
# Each subject underwent a total of 8 euglycemic glucose clamp studies, each performed on a separate day. […] Hepatic glucose output was quantitated in the basal state and during each clamp study using a primed continuous infusion of [3--3H]glucose. […] The dose response relationship for insulin and proinsulinmediated suppression of hepatic glucose output was determined by calculating the percent suppression of basal hepatic glucose output at each steady state hormone concentration obtained during the euglycemic clamp studies.
# glucose disposal = assay: Euglycemic glucose-clamp studies: glucose disposal; format: in vivo, human
# Method: Ten healthy control subjects (five female and five male) ranging in age from 25-40 years (mean age=29±3 years) with mean relative body weights of 0.96+0.02 were used.
# With this technique, an antecubital vein is cannulated in an antegrade manner to administer the infusates. A dorsal hand vein is cannulated in a retrograde fashion and kept in a warming device (70° C.) to facilitate venous sampling and provide arterialized venous blood. After insertion of the catheters, [3--3H]-glucose is infused for at least 30 minutes before initiating the hormone infusion. At the onset of hormone infusion, a priming dose of either insulin or proinsulin is administered during the initial 10 minutes in a logarithmically decreasing manner to acutely raise the serum hormone level. The amount of insulin or proinsulin given during this initial 10 minute period is roughly twice that given during each subsequent 10 minute interval by a continuous hormone infusion. […] The overall glucose disposal rate is assessed isotopically for each 20 minute interval of the study.
# On one day, each subject received a 5.0 μg/M2/min (120 mU/M2/min) insulin infusion over a 6 hour period. […] Each proinsulin infusion was carried out for 300 minutes, with the quantitation of its biological effects based on measurements made during the 5th hour of each study. […]
# [2] = remark: listed apart in the source
# Excerpt: (§2) At this point, the hormone infusion was abruptly stopped, and the glucose concentration was maintained constant until the biologic effects of the infused hormone were no longer detectable.
# [3] = tested on: peripheral glucose uptake; assay: Kinetics of activation and deactivation: peripheral glucose uptake; format: in vivo, human
# Excerpt: Marked differences between the two hormones were noted when biologic activity was studied.
# as §2
# [4] = tested on: hepatic glucose output (HGO); assay: Kinetics of activation and deactivation: hepatic glucose output (HGO); format: in vivo, human
# Excerpt: as §2
# [5] = tested on: hepatic glucose production; assay: Subcutaneous administration to Type II subjects: hepatic glucose production; format: in vivo, human; conditions: 0.2 U/kg s.c.
# [6] = Hormone activity used for dosing; conditions: basis for administered amounts
# HGO = tested on: HGO
# Excerpt: For example, in non-insulin dependent diabetes mellitus (NIDDM), one of the major metabolic abnormalities that maintains the resultant hyperglycemic state is accelerated hepatic glucose production.
# [7] = 0.2 U/kg s.c., five Type II subjects
# [8] = tested on: insulin-degrading proteases; conditions: proteases at subcutaneous injection site of certain diabetics
# fat cells = conditions: e.g. fat cells; cited from earlier work
# plasma glucose = assay: Response of fasting Type II diabetic patients: plasma glucose and hypoglycemia; conditions: 0.2 U/kg s.c.
# [9] = Study A: insulin 15 mU/M^2/min, proinsulin 2.75 μg/M^2/min
substance,measurement,setting,value
human proinsulin,Steady State Hormone Levels (Mean ± SEM),"[1]; infusion A: insulin 0.63 μg/M^2/min, proinsulin 2.75 μg/M^2/min",2.55 ± 0.16 pmol/mL
same,Steady State Hormone Levels (Mean ± SEM),"[1]; infusion B: insulin […]^2/min, proinsulin 7.5 μg/M^2/min",6.24 ± 0.49 pmol/mL
same,Steady State Hormone Levels (Mean ± SEM),"[1]; infusion C: insulin 5.0 μg/M^2/min, proinsulin 22.5 μg/M^2/min",21.2 ± 1.4 pmol/mL
same,Steady State Hormone Levels (Mean ± SEM),"[1]; infusion D: insulin 10.0 μg/M^2/min, proinsulin 45.0 μg/M^2/min",40.0 ± 1.9 pmol/mL
same,Suppression of Hepatic Glucose Output (Mean ± SE),hepatic glucose output; [9],80 ± 6%
same,Hormone concentration required to achieve 90% suppression of hepatic glucose output,"hepatic glucose output; steady state serum concentration, euglycemic clamp",3.35 pmol/mL
same,Time to reach steady state rates of glucose disposal,"glucose disposal; 5 subjects, insulin 5.0 μg/M2/min over 6 hours, proinsulin 22.5 μg/M2/min over 8 hours",≤ 5 h
same,Glucose Disposal Rate (Mean ± SE),glucose disposal; [9],122 ± 11 mg/M^2/min
same,t 1/2 of clearance from the circulation,"[2]; after stopping 5 hour infusion (human insulin 0.55, human proinsulin 2.75 μg/M^2/min)",0.333 h
same,Time by which hormone concentrations are below biologically effective values,[2]; after stopping infusion,≤ 90 minutes
same,Initial volume of distribution compared to human insulin,[2]; primed continuous infusion,much greater
same,Time to steady state hormone concentration,[2]; primed continuous infusion,90 to 120 min
same,Time of initial peak of hormone concentration,"[2]; primed continuous infusion, all infusion rates",no initial peak of hormone concentration was observed
same,t 1/2 of deactivation of effects on glucose disposal,[3]; after stopping 5 hour infusion,1.45 ± 0.233 h
same,"Decay of effect to stimulate glucose disposal, times more slowly than human insulin",[3]; after stopping infusion,2.2 times
same,Time for glucose disposal rates to return to basal,[3]; following cessation of infusion,160 min
same,Time for effect to stimulate glucose disposal to reach steady state,[3]; hormone infusion,> 5 h
same,t 1/2 of deactivation of effect to inhibit HGO,[4]; after stopping 5 hour infusion,3.83 ± 0.317 h
same,"Time for HGO to return to baseline values, by extrapolation of the curve",[4]; after stopping infusion,> 6 h
same,Time until decline in effect to suppress HGO could be detected,[4]; after stopping infusion,120 min
same,Effect on hepatic glucose production,[5],suppressed into the normal range
same,Time of maximum suppression of hepatic glucose production,[5],264 ± 31 min
same,Minimum hepatic glucose production,[5]; basal 3.83±0.6,1.21 ± 0.2 mg/kg/min
same,Hormone activity,[6],4 IU/mg
same,Expected suppression of HGO,"HGO; NIDDM subjects, circulating concentration approximately 1.5 2 pmol/ml",approximately 50%
same,Expected duration of adequate glycemic control,"HGO; sustained level of 1.5-2 pmol/ml for about 3 hours, CSII or single s.c. injection",8 to 10 h
same,Mean peak hormone blood level,[7],6.8 pmol/mL
same,Time of mean peak hormone blood level,[7],230 ± 33 min
same,Degradation by insulin-degrading proteases,[8],not degraded
same,Internalization into target tissues,fat cells,internalized into target tissues
same,Blood glucose level to which each subject was lowered,plasma glucose; five fasting Type II subjects,80 to 110 mg/dL
same,Plasma Glucose,"plasma glucose; Mean of subjects (mean total dose 18.7 I.U.), 0 min after injection",245 mg/dL
same,Plasma Glucose,"plasma glucose; Mean of subjects (mean total dose 18.7 I.U.), 40 min after injection",235 mg/dL
same,Plasma Glucose,"plasma glucose; Mean of subjects (mean total dose 18.7 I.U.), 80 min after injection",221 mg/dL
same,Plasma Glucose,"plasma glucose; Mean of subjects (mean total dose 18.7 I.U.), 120 min after injection",205 mg/dL
same,Plasma Glucose,"plasma glucose; Mean of subjects (mean total dose 18.7 I.U.), 160 min after injection",188 mg/dL
same,Plasma Glucose,"plasma glucose; Mean of subjects (mean total dose 18.7 I.U.), 200 min after injection",167 mg/dL
same,Plasma Glucose,"plasma glucose; Mean of subjects (mean total dose 18.7 I.U.), 280 min after injection",129 mg/dL
same,Plasma Glucose,"plasma glucose; Mean of subjects (mean total dose 18.7 I.U.), 300 min after injection",113 mg/dL
same,Plasma Glucose,"plasma glucose; Mean of subjects (mean total dose 18.7 I.U.), 360 min after injection",102 mg/dL
same,Plasma Glucose,"plasma glucose; Mean of subjects (mean total dose 18.7 I.U.), 400 min after injection",95 mg/dL
same,Plasma Glucose,"plasma glucose; Mean of subjects (mean total dose 18.7 I.U.), 440 min after injection",92 mg/dL
same,Plasma Glucose,"plasma glucose; Mean of subjects (mean total dose 18.7 I.U.), 480 min after injection",96 mg/dL
same,Plasma Glucose,"plasma glucose; subject (total dose 15.0 I.U.), 0 min after injection",332 mg/dL
same,Plasma Glucose,"plasma glucose; subject (total dose 15.0 I.U.), 40 min after injection",328 mg/dL
same,Plasma Glucose,"plasma glucose; subject (total dose 15.0 I.U.), 80 min after injection",308 mg/dL
same,Plasma Glucose,"plasma glucose; subject (total dose 15.0 I.U.), 120 min after injection",288 mg/dL
same,Plasma Glucose,"plasma glucose; subject (total dose 15.0 I.U.), 160 min after injection",272 mg/dL
same,Plasma Glucose,"plasma glucose; subject (total dose 15.0 I.U.), 200 min after injection",247 mg/dL
same,Plasma Glucose,"plasma glucose; subject (total dose 15.0 I.U.), 240 min after injection",210 mg/dL
same,Plasma Glucose,"plasma glucose; subject (total dose 15.0 I.U.), 280 min after injection",174 mg/dL
same,Plasma Glucose,"plasma glucose; subject (total dose 15.0 I.U.), 360 min after injection",94 mg/dL
same,Plasma Glucose,"plasma glucose; subject four (total dose 27.2 I.U.), 0 min after injection",159 mg/dL
same,Plasma Glucose,"plasma glucose; subject four (total dose 27.2 I.U.), 40 min after injection",144 mg/dL
same,Plasma Glucose,"plasma glucose; subject four (total dose 27.2 I.U.), 120 min after injection",128 mg/dL
same,Plasma Glucose,"plasma glucose; subject four (total dose 27.2 I.U.), 200 min after injection",110 mg/dL
same,Plasma Glucose,"plasma glucose; subject four (total dose 27.2 I.U.), 240 min after injection",101 mg/dL
same,Plasma Glucose,"plasma glucose; subject four (total dose 27.2 I.U.), 280 min after injection",98 mg/dL
same,Plasma Glucose,"plasma glucose; subject four (total dose 27.2 I.U.), 300 min after injection",88 mg/dL
same,Plasma Glucose,"plasma glucose; subject four (total dose 27.2 I.U.), 360 min after injection",84 mg/dL
same,Plasma Glucose,"plasma glucose; subject four (total dose 27.2 I.U.), 400 min after injection",85 mg/dL
same,Plasma Glucose,"plasma glucose; subject four (total dose 27.2 I.U.), 440 min after injection",86 mg/dL
same,Plasma Glucose,"plasma glucose; subject four (total dose 27.2 I.U.), 480 min after injection",88 mg/dL
same,Plasma Glucose,"plasma glucose; subject one (total dose 14.8 I.U.), 0 min after injection",213 mg/dL
same,Plasma Glucose,"plasma glucose; subject one (total dose 14.8 I.U.), 40 min after injection",203 mg/dL
same,Plasma Glucose,"plasma glucose; subject one (total dose 14.8 I.U.), 80 min after injection",187 mg/dL
same,Plasma Glucose,"plasma glucose; subject one (total dose 14.8 I.U.), 160 min after injection",140 mg/dL
same,Plasma Glucose,"plasma glucose; subject one (total dose 14.8 I.U.), 240 min after injection",81 mg/dL
same,Plasma Glucose,"plasma glucose; subject one (total dose 14.8 I.U.), 280 min after injection",77 mg/dL
same,Plasma Glucose,"plasma glucose; subject one (total dose 14.8 I.U.), 300 min after injection",80 mg/dL
same,Plasma Glucose,"plasma glucose; subject one (total dose 14.8 I.U.), 320 min after injection",80 mg/dL
same,Plasma Glucose,"plasma glucose; subject three (total dose 16.3 I.U.), 0 min after injection",290 mg/dL
same,Plasma Glucose,"plasma glucose; subject three (total dose 16.3 I.U.), 40 min after injection",282 mg/dL
same,Plasma Glucose,"plasma glucose; subject three (total dose 16.3 I.U.), 80 min after injection",272 mg/dL
same,Plasma Glucose,"plasma glucose; subject three (total dose 16.3 I.U.), 120 min after injection",250 mg/dL
same,Plasma Glucose,"plasma glucose; subject three (total dose 16.3 I.U.), 160 min after injection",230 mg/dL
same,Plasma Glucose,"plasma glucose; subject three (total dose 16.3 I.U.), 200 min after injection",200 mg/dL
same,Plasma Glucose,"plasma glucose; subject three (total dose 16.3 I.U.), 240 min after injection",183 mg/dL
same,Plasma Glucose,"plasma glucose; subject three (total dose 16.3 I.U.), 280 min after injection",152 mg/dL
same,Plasma Glucose,"plasma glucose; subject three (total dose 16.3 I.U.), 300 min after injection",127 mg/dL
same,Plasma Glucose,"plasma glucose; subject three (total dose 16.3 I.U.), 360 min after injection",101 mg/dL
same,Plasma Glucose,"plasma glucose; subject three (total dose 16.3 I.U.), 400 min after injection",82 mg/dL
same,Plasma Glucose,"plasma glucose; subject three (total dose 16.3 I.U.), 440 min after injection",77 mg/dL
same,Plasma Glucose,"plasma glucose; subject two (total dose 20.0 I.U.), 0 min after injection",231 mg/dL
same,Plasma Glucose,"plasma glucose; subject two (total dose 20.0 I.U.), 40 min after injection",217 mg/dL
same,Plasma Glucose,"plasma glucose; subject two (total dose 20.0 I.U.), 80 min after injection",201 mg/dL
same,Plasma Glucose,"plasma glucose; subject two (total dose 20.0 I.U.), 120 min after injection",191 mg/dL
same,Plasma Glucose,"plasma glucose; subject two (total dose 20.0 I.U.), 160 min after injection",182 mg/dL
same,Plasma Glucose,"plasma glucose; subject two (total dose 20.0 I.U.), 240 min after injection",164 mg/dL
same,Plasma Glucose,"plasma glucose; subject two (total dose 20.0 I.U.), 280 min after injection",143 mg/dL
same,Plasma Glucose,"plasma glucose; subject two (total dose 20.0 I.U.), 300 min after injection",134 mg/dL
same,Plasma Glucose,"plasma glucose; subject two (total dose 20.0 I.U.), 360 min after injection",128 mg/dL
same,Plasma Glucose,"plasma glucose; subject two (total dose 20.0 I.U.), 400 min after injection",117 mg/dL
same,Plasma Glucose,"plasma glucose; subject two (total dose 20.0 I.U.), 440 min after injection",112 mg/dL
same,Plasma Glucose,"plasma glucose; subject two (total dose 20.0 I.U.), 480 min after injection",104 mg/dL
same,Plasma Glucose,"plasma glucose; subject two (total dose 20.0 I.U.), 500 min after injection",100 mg/dL
